Assay results as given in PubChem BioAssay (NCI).
“And” between values parts separate entries of the source, which are not always exact repeats. Equal entries are not always repeated.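 Cultured in 96-well plates, cells were exposed to test compound for 48 hours across five concentrations. GI50 is the concentration that inhibits growth by half. TGI is the concentration that stops growth completely.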

Legend:
Experiment in all cases: growth of human tumour cells (NCI), 48 h
COLO 205 colon = system: COLO 205 colon
HCC-2998 colon = system: HCC-2998 colon
LOX IMVI melanoma = system: LOX IMVI melanoma
NCI-H226 lung = system: NCI-H226 lung
OVCAR-5 ovarian = system: OVCAR-5 ovarian
OVCAR-8 ovarian = system: OVCAR-8 ovarian
RXF 393 renal = system: RXF 393 renal
SK-MEL-2 melanoma = system: SK-MEL-2 melanoma
SN12C renal = system: SN12C renal
UACC-62 melanoma = system: UACC-62 melanoma

| Compound | GI50 (COLO 205 colon) | TGI (COLO 205 colon) | GI50 (HCC-2998 colon) | TGI (HCC-2998 colon) | GI50 (LOX IMVI melanoma) | TGI (LOX IMVI melanoma) | GI50 (NCI-H226 lung) | TGI (NCI-H226 lung) | GI50 (OVCAR-5 ovarian) | TGI (OVCAR-5 ovarian) | GI50 (OVCAR-8 ovarian) | TGI (OVCAR-8 ovarian) | GI50 (RXF 393 renal) | TGI (RXF 393 renal) | GI50 (SK-MEL-2 melanoma) | TGI (SK-MEL-2 melanoma) | GI50 (SN12C renal) | TGI (SN12C renal) | GI50 (UACC-62 melanoma) | TGI (UACC-62 melanoma) |
| --- | --- | --- | --- | --- | --- | --- | --- | --- | --- | --- | --- | --- | --- | --- | --- | --- | --- | --- | --- | --- |
| CCn1cc(-c2ccnc3[nH]ccc23)c(-c2cccc(NC(=O)Nc3ccc(OCc4ccccc4)cc3)c2)n1 | 11.2 µM | > 25 µM | 13.2 µM | > 25 µM | 6.01 µM | > 25 µM | > 25 µM | > 25 µM | 22.1 µM | > 25 µM | 15.7 µM | > 25 µM | 1.28 µM | 7.88 µM | 8.14 µM | > 25 µM | > 25 µM | > 25 µM | 5.89 µM | > 25 µM |
| CC1=C(C(=O)NCc2ccccc2)C(c2ccc([N+](=O)[O-])cc2)C(C(=O)NCc2ccccc2)=C(C)N1 | – | 83.5 µM | – | > 100 µM | – | 44.1 µM | – | > 100 µM | – | 93.5 µM | – | > 100 µM | – | 86.5 µM | – | > 100 µM | – | > 100 µM | – | 64.6 µM |
| CN1C(=O)[C@@H](NC(=O)[C@H](CCC(F)(F)F)[C@H](CCC(F)(F)F)C(N)=O)N=C(c2ccccc2)c2ccccc21 | 87.5 µM | > 100 µM | > 100 µM | > 100 µM | > 100 µM | > 100 µM | > 100 µM | > 100 µM | > 100 µM | > 100 µM | > 100 µM | > 100 µM | 24.6 µM | > 100 µM | > 100 µM | > 100 µM | > 100 µM | > 100 µM | 35.7 µM | > 100 µM |
| COc1ccc(NC(=O)CC/C(CC(=O)C(C)(C)C)=N\NC(=O)C(N)=O)cc1 | – | > 100 µM | – | > 100 µM | – | > 100 µM | – | > 100 µM | – | > 100 µM | – | > 100 µM | – | > 100 µM | – | > 100 µM | – | > 100 µM | – | > 100 µM |
| COc1cc2c(cc1OC)C(OC)N(C)c1c-2ccc2cc3c(cc12)OCO3 (stereo unspecified) | – | 2.95 µM | – | 5.73 µM | – | > 32.8 µM | – | 4.3 µM | – | 11.8 µM | – | 21.6 µM | – | 22.7 µM | – | 5.02 µM | – | 21.1 µM | – | 3.08 µM |
| Nc1ncnc2c1c(-c1cccc(OCc3ccccc3)c1)cn2C1CC(CN2CCC2)C1 (stereo unspecified) | 0.262 µM and 0.245 µM | 1.55 µM and 1.29 µM | 2.26 µM and 5.4 µM | 10.6 µM and > 10 µM | 1.51 µM and 1.41 µM | 3.02 µM and 3 µM | 2.03 µM and 2.71 µM | 16 µM and > 10 µM | 0.844 µM and 2.48 µM | 14.9 µM and > 10 µM | 5.92 µM and 8.46 µM | 20 µM and > 10 µM | 1.71 µM and 2 µM | 4.27 µM and 7.26 µM | 1.58 µM and 2.21 µM | 3.36 µM and 6.1 µM | 4.59 µM and 5.75 µM | 18 µM and > 10 µM | 1.74 µM and 1.5 µM | 3.58 µM and 3.33 µM |
| CC(=O)O[C@H]1CCC2[C@@H]3CCC4=C(O)C(=O)C(C#N)C[C@]4(C)C3CC[C@@]21C (stereo partly specified) | – | 84.4 µM | – | > 100 µM | – | > 100 µM | – | > 100 µM | – | > 100 µM | – | > 100 µM | – | > 100 µM | – | > 100 µM | – | > 100 µM | – | > 100 µM |
| COC(=O)c1c(O)c([N+](=O)[O-])cc2c1c1c(n2Cc2ccccc2)C(=O)c2ccccc2C1=O | 2.18 µM | 6.82 µM | 11.2 µM | 23.2 µM | > 100 µM | > 100 µM | 26.4 µM | 62.9 µM | 28.6 µM | 66.7 µM | 14.1 µM | 53.1 µM | 12.3 µM | 61.9 µM | 27.2 µM | > 100 µM | 25.5 µM | 65.7 µM | 30.9 µM | > 100 µM |
| O=C(Cc1nc2ccccc2s1)C(=O)Nc1cccc(Cl)c1 | – | > 100 µM | – | > 100 µM | – | > 100 µM | – | > 100 µM | – | > 100 µM | – | > 100 µM | – | > 100 µM | – | > 100 µM | – | > 100 µM | – | > 100 µM |
| COc1ccc(-c2nc(C(=O)c3ccccc3)n(CC(=O)c3ccccc3)c2-c2ccc(OC)cc2)cc1 | > 100 µM | > 100 µM | > 100 µM | > 100 µM | > 100 µM | > 100 µM | > 100 µM | > 100 µM | > 100 µM | > 100 µM | > 100 µM | > 100 µM | > 100 µM | > 100 µM | > 100 µM | > 100 µM | > 100 µM | > 100 µM | > 100 µM | > 100 µM |
| O=C(O)c1cc2ccccc2oc1=O | – | > 100 µM | – | > 100 µM | – | > 100 µM | – | > 100 µM | – | > 100 µM | – | > 100 µM | – | > 100 µM | – | > 100 µM | – | > 100 µM | – | > 100 µM |
| CCCCCCCCCc1cc[n+](CC(=O)c2ccc([N+](=O)[O-])cc2)cc1 | 0.344 µM | 1.45 µM | 0.514 µM | 1.93 µM | 1.66 µM | 3.19 µM | 0.535 µM | 2.15 µM | 1.16 µM | 2.52 µM | 0.604 µM | 2.13 µM | 0.754 µM | 2.15 µM | 0.565 µM | 2.06 µM | 0.581 µM | 1.9 µM | 1.23 µM | 2.54 µM |
| Nc1ccccc1NC(=O)c1ccc(CCCC(=O)Nc2ccc(C3CC3N)cc2)cc1 (stereo unspecified) | 0.765 µM | 2.89 µM | 1.72 µM | 5.65 µM | 1.45 µM | 3.47 µM | 1.85 µM | 69.4 µM | 0.925 µM | 37.6 µM | 1.32 µM | > 100 µM | 1.65 µM | 4.1 µM | 1.55 µM | 7.26 µM | 3.62 µM | > 100 µM | 0.573 µM | 3.03 µM |
| OC(COc1ccc(F)cc1)Cn1cnc2c(Cl)ncnc21 (stereo unspecified) | > 100 µM | > 100 µM | 19.3 µM | 42.3 µM | 39.1 µM | > 100 µM | > 100 µM | > 100 µM | > 100 µM | > 100 µM | 78.6 µM | > 100 µM | 1.78 µM | 44.4 µM | > 100 µM | > 100 µM | > 100 µM | > 100 µM | 79 µM | > 100 µM |
| C[C@@H](CN1CC(=O)NC(=O)C1)N1CC(=O)NC(=O)C1 | – | 296 µM | – | 1540 µM | – | 729 µM | 90.7 µM | 485 µM | – | 1190 µM | – | 747 µM | – | 1140 µM | – | 754 µM | – | 906 µM | – | 570 µM |
| Cc1cc(O)c(C2=NN(c3ccc(S(N)(=O)=O)cc3)C(c3ccc(N(C)C)cc3)C2)c(C)c1Cl (stereo unspecified) | 12.3 µM | 25.4 µM | 14.8 µM | 30.9 µM | 14.8 µM | 32 µM | 13.4 µM | 29.4 µM | 19.4 µM | 38.1 µM | 27.3 µM | > 100 µM | 24.5 µM | 59.1 µM | 21.4 µM | 43.6 µM | 9.62 µM | 25 µM | 9.92 µM | 25.8 µM |
| O=C(Nc1cccc(Cc2cccc(NC(=O)c3ccccc3)c2)c1)c1ccccc1 | – | > 100 µM | – | > 100 µM | – | > 100 µM | – | > 100 µM | – | > 100 µM | – | > 100 µM | – | 46.6 µM | – | > 100 µM | – | > 100 µM | – | > 100 µM |
| CN(CC#N)C1CCCC[C@H]1O (stereo partly specified) | – | > 100 µM | – | > 100 µM | – | > 100 µM | – | > 100 µM | – | > 100 µM | – | > 100 µM | – | > 100 µM | – | > 100 µM | – | > 100 µM | – | > 100 µM |
| CN1CCN(c2ccc(Nc3nc(N)c(C(=O)c4ccc5c(c4)OCCO5)s3)cc2)CC1 | 2.27 µM | 7.35 µM | 9.67 µM | > 19.6 µM | 3.2 µM | 7.21 µM | 2.71 µM | 11.8 µM | 2.86 µM | 8.48 µM | 5.94 µM | 16.7 µM | 1.71 µM | 5.71 µM | 4.77 µM | 15.2 µM | 3.33 µM | > 25 µM | 4.19 µM | 9.35 µM |
